31 substances from ChEMBL document CHEMBL4665541, “Search for new therapeutic options for the uncommon pathogen Mycobacterium chimaera: an open drug discovery approach” (Lancet Microbe, 2021) can be followed below.

What all share (format): functional, organism-based
Set-up in all cases: conc 20 uM

In assay [1] the test system is Mycobacterium intracellulare subsp. chimaera. Nature of the assay: (§1) Inhibition of mycobacterial growth using the resazurin microtitre cell viability assay (REMA), compounds at final concentration of 20 µM (2% v/v DMSO). Hits were classed as compounds that inhibited bacterial growth by 70% or more compared to drug-free controls. Particulars: NCTC13781. In general terms: Resazurin is reduced to fluorescent resorufin, in cell work by metabolically active cells.

In assay [2] the test system is Mycobacteroides abscessus. The description is as §1. Particulars: ATCC19977.
Assay [3] deals with Mycobacterium tuberculosis. The description is as §1. Particulars: H37Rv.

With MMV688471, the Survival is 98.6% in assay [1], 109% in assay [2] and 87.8% in assay [3].

As to MMV688472, the values for the Survival in assay [1], in assay [2] and in assay [3] were 92.3%, 103% and 98%, respectively.

Take MMV688474: the Survival in assay [1] was 100%; in assay [2], 106%; in assay [3] it was 94%.

For MMV688508, the Survival in assay [1] is -0.22%; in assay [2], 18.6%; in assay [3], 7.31%.

MMV688509: the Survival in assay [1] is 110%; in assay [2], 119%; in assay [3] it was 91.6%.

Take MMV688514: the Survival in assay [1] is 100%; in assay [2] it was 111%; in assay [3], 91.7%.

With MMV688543, the Survival in assay [1] is 97.2%; in assay [2], 101%; in assay [3], 89%.

As for MMV688547, the figures for the Survival in assay [1], in assay [2] and in assay [3] were 102%, 116% and 95.2%, respectively.

As for MMV688548, the Survival is 101% in assay [1], 115% in assay [2] and 91.6% in assay [3].

Turning to MMV688550, the Survival is 99% in assay [1], 105% in assay [2] and 95.8% in assay [3].

In the case of MMV688552, the Survival in assay [1] was 103%; in assay [2], 107%; in assay [3], 81%.

Take MMV688553: the Survival was 91.3% in assay [1], 105% in assay [2] and 54% in assay [3].

Turning to MMV688554, the Survival in assay [1] is 102%; in assay [2], 115%; in assay [3], 76%.

Take MMV688555: the Survival in assay [1] was 92.5%; in assay [2], 108%; in assay [3] it was 46.8%.

With MMV688557, the values for the Survival in assay [1], in assay [2] and in assay [3] were 101%, 101% and 95.7%, respectively.

Consider MMV688703, for which the Survival in assay [1] is 103%; in assay [2] it was 108%; in assay [3] it was 102%.

On to MMV688704, for which the Survival was 98.7% in assay [1], 106% in assay [2] and 92.8% in assay [3].

On to MMV688754, for which the figures for the Survival in assay [1], in assay [2] and in assay [3] were 103%, 109% and 92.9%, respectively.

Regarding MMV688755, the Survival in assay [1] is 107%; in assay [2] it was 111%; in assay [3], 7.68%.

For MMV688756, the results for the Survival in assay [1], in assay [2] and in assay [3] were 2.59%, 50% and 13.4%, respectively.

Regarding MMV688761, the results for the Survival in assay [1], in assay [2] and in assay [3] were 108%, 113% and 108%, respectively.

As for MMV688762, the figures for the Survival in assay [1], in assay [2] and in assay [3] were 96.2%, 121% and 89%, respectively.

Consider MMV688763, for which the Survival in assay [1] is 99.1%; in assay [2], 122%; in assay [3] it was 21.8%.

In the case of MMV688766, the Survival in assay [1] is 104%; in assay [2], 111%; in assay [3] it was 88.4%.

For MMV688768, the Survival in assay [1] is 93.9%; in assay [2], 109%; in assay [3] it was 87%.

With MMV688771, the Survival in assay [1] is 91.7%; in assay [2], 98.2%; in assay [3] it was 91.4%.

Take MMV688773: the values for the Survival in assay [1], in assay [2] and in assay [3] were 94.7%, 122% and 82.8%, respectively.

Consider MMV688774, for which the results for the Survival in assay [1], in assay [2] and in assay [3] were 79.3%, 107% and 100%, respectively.

Turning to MMV688775, the Survival in assay [1] is 1.46%; in assay [2], 15.1%; in assay [3], 4.71%.

For the substance MMV688776, the Survival was 100% in assay [1], 115% in assay [2] and 127% in assay [3].

On to MMV688793, for which the Survival in assay [1] was 101%; in assay [2] it was 114%; in assay [3], 89.7%.
